pIC50: −log10 of the molar value.
Molecular target: D-amino-acid oxidase (Sus scrofa, UniProt P00371)
Experiment: In vitro D-Amino Acid Oxidase Assay
Details: pH 8.5; 22 °C
Description: D-amino acid oxidase (DAAO) was assayed in a 96-well plate format. D-serine was oxidatively deaminated by porcine D-amino acid oxidase in the presence of molecular oxygen and flavin […] dinucleotide (FAD) to yield the corresponding alpha-keto acid, ammonia and hydrogen peroxide.

Sequence of D-amino-acid oxidase (P00371 whole entry): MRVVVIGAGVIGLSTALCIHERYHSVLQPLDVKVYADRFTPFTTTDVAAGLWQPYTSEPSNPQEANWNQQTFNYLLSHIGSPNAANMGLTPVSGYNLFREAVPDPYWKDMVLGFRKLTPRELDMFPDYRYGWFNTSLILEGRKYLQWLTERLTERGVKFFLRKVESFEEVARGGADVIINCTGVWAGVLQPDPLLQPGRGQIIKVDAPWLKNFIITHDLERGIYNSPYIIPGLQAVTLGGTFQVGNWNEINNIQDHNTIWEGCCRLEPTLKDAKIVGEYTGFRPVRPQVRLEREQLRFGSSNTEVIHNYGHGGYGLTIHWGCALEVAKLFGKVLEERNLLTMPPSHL

In the case of O=c1[nH]oc2c1CCCC2 [4,5,6,7-tetrahydrobenzo[d]isoxazol-3-ol], the pIC50 was < 4.00.

— BindingDB's records for doi:10.1021/jm800200u (Mgi Pharma, 2008)
